Laboratory results reported in ChEMBL document CHEMBL4270500, “From the hive: Honey, a novel weapon against cancer” (Eur J Med Chem, 2017).

Key:
[1] = Cytotoxicity in human M17 cells assessed as reduction in cell viability incubated for 48 hrs by MTT assay; type: functional, cell-based
HeLa = assay: Cytotoxicity in human HeLa cells assessed as reduction in cell viability incubated for 24 to 72 hrs by MTT assay; type: functional, cell-based
[2] = Cytotoxicity in human SP6.5 cells assessed as reduction in cell viability incubated for 48 hrs by MTT assay; type: functional, cell-based
KYSE-510 = assay: Cytotoxicity in human KYSE-510 cells assessed as reduction in cell viability incubated for 24 to 72 hrs by MTT assay; type: functional, cell-based
Caco-2 = assay: Inhibition of cell proliferation of human Caco2 cells at 1500 umol/L incubated for 1 to 3 days by trypan blue dye based hemocytometry relative to untreated control; type: functional
Ehrlich [3] = assay: Antitumour activity against mouse EAC implanted in BALB/c mouse assessed as inhibition of solid tumor growth at 100 mg/kg, ip dosed consecutively from day 1 to 9 relative to untreated control; type: functional; conditions: 24 h, read-out: TGI
Ehrlich [4] = assay: Antitumour activity against mouse EAC implanted in BALB/c mouse assessed as inhibition of tumor growth at 100 mg/kg, ip dosed consecutively from day 1 to 9 relative to untreated control; type: functional; conditions: 24 h, read-out: TGI

## O=c1cc(-c2ccccc2)oc2cc(O)cc(O)c12 [CHRYSIN]
[1]
  IC50: 35.8 µM
HeLa
  IC50: 14.2 µM
[2]
  IC50: 28.3 µM
KYSE-510
  IC50: 63 µM

## O=C(O)/C=C/c1ccc(O)cc1 [COUMARIC ACID]
Caco-2
  inhibition at 1500 µM: 43 to 75%

## C=CCc1ccc(O)c(OC)c1 [EUGENOL]
Ehrlich [3]
  inhibition in vivo at 100 mg/kg: 24.4%
Ehrlich [4]
  inhibition in vivo at 100 mg/kg: 28.9%
